Test results reported in patent publication US20250090626A1, “NEW PEPTIDE AND USES THEREOF” (Neo Cremar Co., Ltd., priority 2021, published 2025).
No end group written: not given here.

Key:
Type in all cases: cell-based, mouse
C2C12 cells [1] = assay: C2C12 cell proliferation (MTT method); conditions: C2C12, peptide 1000 nM, 1 day, MTT; FIG. 4
Protocol: C2C12 cells, a mouse myoblast line, were cultured in Dulbecco's Modified Eagle's Medium (DMEM)+10% fetal bovine serum (FBS)+1% penicillin/streptomycin (P/S). To validate the effect of MIF peptide, C2C12 cells (2×10^3 cells/ml) were placed in a 12 well cell culture dish and attached for 24 hours, and MIF peptide (1000 nM) was treated for 1 day to observe cell proliferation by MTT method. The medium was replaced every 2 days, and the cells were cultured at 37° C.
To validate cell proliferation, the culture medium of the cells was removed, the cells were washed with DMEM, 500 μl of MTT reagent (0.5 mg/ml) dissolved in phosphate buffered saline (PBS) was added to each well, and the cells were left at 37° C. for 1 hour. The reaction solution was removed, and 1000 μl of DMSO was added to each well. Purple formazan crystals were completely dissolved in DMSO, and the absorbance was measured at 540 nm.

C2C12 cells [2] = assay: Scratch experiment, degree of cell recovery; conditions: C2C12, 1000 nM peptide, 1 day in proliferation medium
Protocol: When the C2C12 cells were 100% grown, cells were scratches on the surface, treated with 1000 nM MIF1 or Ac-MIF1 peptides, and cultured for 1 day, followed by observation for a degree of cell recovery.

C2C12 cells [3] = assay: Myodifferentiation, Giemsa staining, root canal formation and fusion index; conditions: 3 days
Protocol: When C2C12 cells were 70% grown, media were replaced with myodifferentiation medium added with MSTN protein (1 ng), Ac-MIF1 (1000 nM), and Ac-MIF1 (1000 nM)+MSTN protein (1 ng) from proliferation medium, followed by culture for 3 days.
When the cells grew more than 70% for differentiation of myoblasts into myocytes, they were cultured for 3 days by replacing with a differentiation medium (DMEM+2% FBS+1% P/S). The medium was replaced once daily, and the cells were cultured at 37° C.
The cell medium was removed, and the cells were washed with PBS. After washing, a methanol:PBS reagent in a 1:1 volume ratio was treated, followed by fixation for 2 minutes. Additionally, after a methanol:PBS reagent in a 2:1 volume ratio was added, fixation was followed for additional 2 minutes. After 2 minutes, 0.04% Giemsa reagent was added, and then the cells were left for 30 minutes, washed with PBS after 30 minutes, and observed under a microscope, with 3 photographs taken for each cell (300×). In the photographs taken, the number of fused nuclei in the root canal cells was counted, the number of nuclei of total cells was counted, and the number of fused nuclei was divided by the number of nuclei of the total cells to obtain the % value.

3T3L1 cells [4] = assay: Adipodifferentiation of 3T3L1 cells, Oil red O staining; conditions: 3T3L1, adipocyte-induced differentiation medium with Ac-MIF1, 4 days; FIG. 13B
Protocol: For differentiation of 3T3L1 cells into adipocytes, when the cells grew about 100% or more, they were replaced with differentiation medium (DMEM+10% FBS+1% P/S+10 ug/ml insulin+1 μM dexametazone+0.5 μM IBMX (3-isobutyl-1-methylxanthine)) and cultured for 2 days. After 2 days, MIF was treated in a medium including 10 ug/ml insulin to induce cell differentiation.
3T3L1 cells were treated with peptides and differentiated for 4 days, then the medium was removed, and the cells were washed with normal saline, treated with 10% formaldehyde, and left for 10 minutes. After 10 minutes, Oil-red O staining agents (6 ([…] Oil-red O reagent+1 ml 100% isopropanol):4 (distilled water)) were treated and left for 1 hour. After 1 hour, cells were washed with normal saline and then observed under a microscope. To measure the Oil-red O stained in the intracellularly differentiated cells, 100% isopropanol was added and collected, followed by measurement at 510 nm.

3T3L1 cells [5] = assay: Expression of FMOD, MSTN and lipogenesis-related mRNAs and proteins in 3T3L1 cells; conditions: 3T3L1, Ac-MIF1 treated vs untreated; FIG. 13C
Protocol: After adding 1 ml of TRIzol™ reagent, the cells were crushed using a sonicator. After centrifugation of the crushed sample (12,000 rpm, 10 min, 4° C.), the supernatant was transferred to a new tube, added with 200 μl of chloroform, and left at room temperature for 10 minutes. After 10 minutes, centrifugation (12,000 rpm, 10 min, 4° C.) was performed, yielded a transparent supernatant. Next, 500 μl of isopropanol was added, the mixture was left for 10 minutes, and centrifugation was performed to obtain RNA pellets. After washing by adding 70% ethanol (distilled water treated with ethanol+diethylpyrocarbonate (hereinafter referred to as DEPC)) to the RNA pellets, complete removal and drying were followed. The dried transparent RNA was added with DEPC-treated distilled water and then stored at −80° C. Total RNA volume was measured by nanodrop, and the 18s and 28s bands were detected in 1.2% agarose gel. cDNA was synthesized with 2 μg of total RNA, random hexamer primers, and reverse transcriptase (25° C.: 10 min, 37° C.: 120 min, 85° C.: 5 min).
Real-time PCR (RT-PCR) was performed for detecting gene expression. For observation of real-time gene expression, gene expression was analyzed using the Power SYBR Green PCR Master Mix, which includes fluorescent materials of SYBR green (7500 Real-time PCR system). The PCR primer was designed with Primer 3 software (http://frodo.wi.mit.edu) according to the nucleotide sequence secured from NCBI GenBank. PCR was performed 40 times at 95° C. for 10 minutes, again at 95° C. for 33 seconds, at gene primer temperature (tm) for 33 seconds, and at 72° C. for 33 seconds. Gene expression values were analyzed through the analysis of c(t) values obtained through real-time PCR analysis (fold change 2-^ΔΔCt formula). Setting the gene expression value of the untreated cells to 1, the gene expression value of the treated cells was calculated. In the analysis of gene c(t) values, normalization was conducted with the glyceraldehyde-3-phosphate dehydrogenase (GAPDH).
(2) The medium of cultured 3T3L1 cells was removed and washed with PBS. After adding LIPA buffer and protease inhibitor to the washed cells, the proteins included in the supernatant were collected after centrifugation at 12000 rpm for 10 minutes. 40 μg of the extracted proteins were subjected to electrophoresis in 8 to 10% acrylamide gel and then transferred to a polyvinylidene fluoride (PVDF) membrane (Milipore). These were blocked with 3% skim milk or bovine serum albumin (BSA) at room temperature for 1 hour. Afterwards, primary antibody diluted in 1% skim milk or BSA (MSTN; 1:1000, 13-actin; 1:1000, CD36; 1:500, CD163; 1:500, FMOD; 1:400, and PPARγ; 1:500) was added and reacted at 4° C. for over 16 hours. After 16 hours, they were washed three times with TBST (Tris-buffered saline with Tween 20) and reacted with secondary antibody conjugated with horseradish peroxidase (HRP) at room temperature for 1 hour. It was washed three times with TBST and developed after adding Super Signal West Pico Chemiluminescent Substrate.

Ac-VDFEAFWDWG [Ac-MIF1, MIF1 with N-terminus acetylated, 10 mer]
cell proliferation, increase compared to cells without peptide treatment (C2C12 cells [1]): 24%
scratch recovery degree, increase compared to untreated cells (C2C12 cells [2]): 28%
fusion index, increase compared to untreated cells (C2C12 cells [3]; C2C12, differentiation medium including peptide): 11%
root canal formation compared to untreated cells (C2C12 cells [3]; C2C12, differentiation medium): increased
fusion index compared to untreated cells (C2C12 cells [3]; C2C12, muscle differentiation medium, Ac-MIF1 1000 nM, FIG. 9): increased
fat accumulation (Oil-red O intensity), decrease compared to cells without peptide treatment (3T3L1 cells [4]): 8%
CD36 expression (mRNA and protein) (3T3L1 cells [5]): decreased
CD163 expression (mRNA and protein) (3T3L1 cells [5]): decreased
FMOD expression (mRNA and protein) (3T3L1 cells [5]): decreased
MSTN expression (mRNA and protein) (3T3L1 cells [5]): decreased
PPARγ expression (mRNA and protein) (3T3L1 cells [5]): decreased
